Key:
[1] = tested on: U937 cells; assay: U937 cell inhibition assay (WST-1 cell viability); type: cell-based
Description: (§1) Cancer cell lines (U937 and HUT) growing in log phase were harvested and seeded at 1000-2000 cells/well (100 μl final volume) into 96-well tissue culture plates. Following 24 h of growth cells were treated with Compound. Plates were then re-incubated for a further 72-96 h before a WST-1 cell viability assay was conducted according to the suppliers (Roche Applied Science) instructions.
(§2) Data were expressed as a percentage inhibition of the control, measured in the absence of inhibitor, as follows: % inhibition=100−[(S^i/S^o)×100] where S^i is the signal in the presence of inhibitor and S^o is the signal in the presence of DMSO.
(§3) Dose response curves were generated from 8 concentrations (top final concentration 10 μM, with 3-fold dilutions), using 6 replicates.
(§4) IC50 values were determined by non-linear regression analysis, after fitting the results to the equation for sigmoidal dose response with variable slope (% activity against log concentration of Compound), using Graphpad Prism software.

[2] = tested on: HeLa cells; assay: HeLa cell inhibition assay (sulphorhodamine B cell viability); type: cell-based; settings: 72 h, SRB
Description: HeLa cells growing in log phase were harvested and seeded at 1000 cells/well (200 μl final volume) into 96-well tissue culture plates. Following 24 h of cell growth cells were treated with Compounds (final concentration of 20 μM). Plates were then re-incubated for a further 72 h before a sulphorhodamine B (SRB) cell viability assay was conducted according to the methodology described by Skehan et al, J. Natl. Canc. Inst., 1990, 82, 1107-1112.
Data were expressed as a percentage inhibition of the control, measured in the absence of inhibitor, as follows:— % inhibition=100−[(S^i/S^o)×100] where S^i is the signal in the presence of inhibitor and S^o is the signal in the presence of DMSO.
(§5) IC50 values were determined by non-linear regression analysis, after fitting the results of eight data points to the equation for sigmoidal dose response with variable slope (% activity against log concentration of Compound), using Graphpad Prism software.

[3] = tested on: HUT cells; assay: HUT cell inhibition assay (WST-1 cell viability); type: cell-based; settings: 72-96 h
Description: as §1, §2, §3, §4

[4] = target: T1, histone deacetylase activity (HeLa nuclear extract); assay: Histone deacetylase activity (Biomol Fluor de Lys HDAC fluorescent activity assay); type: biochemical; settings: Fluor de Lys substrate
T1 construct: Histone deacetylase activity from crude nuclear extract derived from HeLa cells was used for screening
Description: The ability of compounds to inhibit histone deacetylase activities was measured using the commercially available HDAC fluorescent activity assay from Biomol. In brief, the Fluor de Lys™ substrate, a lysine with an epsilon-amino acetylation, is incubated with the source of histone deacetylase activity (HeLa nuclear extract) in the presence or absence of inhibitor. Deacetylation of the substrate sensitises the substrate to Fluor de Lys™ developer, which generates a fluorophore. Thus, incubation of the substrate with a source of HDAC activity results in an increase in signal that is diminished in the presence of an HDAC inhibitor.
Data are expressed as a percentage of the control, measured in the absence of inhibitor, with background signal being subtracted from all samples, as follows: % activity=[(S^i−B)/(S^o−B)]×100 where S^i is the signal in the presence of substrate, enzyme and inhibitor, S^o is the signal in the presence of substrate, enzyme and the vehicle in which the inhibitor is dissolved, and B is the background signal measured in the absence of enzyme.
as §5
Histone deacetylase activity from crude nuclear extract derived from HeLa cells was used for screening. The preparation, purchased from 4C (Seneffe, Belgium), was prepared from HeLa cells harvested whilst in exponential growth phase. The nuclear extract was prepared according to the methodology described by J. D. Dignam, Nucl. Acid. Res., 1983, 11, 1475-1489, snap frozen in liquid nitrogen and stored at −80° C. The final buffer composition was 20 mM Hepes, 100 mM KCl, 0.2 mM EDTA, 0.5 mM DTT, 0.2 mM PMSF and 20% (v/v) glycerol.

Compound | IC50 ([1]; Homo sapiens, U-937, 72-96 h) [nM] | IC50 ([2]; Homo sapiens) [nM] | IC50 [3] [nM] | IC50 [4] [nM] | IC50 ([1]; 72-96 h) [nM] | IC50 [2] [nM]
CC(C)(C)OC[C@H](NCc1ccc(CNCC2CCN(c3ncc(C(=O)NO)cn3)CC2)cc1)C(=O)OC1CCCC1 [Example 40] | < 330 | 331 to 3300 | < 330 |  |  | 
O=C(NO)c1cnc(N2CCC(CN[C@@H](CO)C(=O)OC3CCCC3)CC2)nc1 [Example 24] | < 330 | 331 to 3300 | < 330 |  |  | 
O=C(NO)c1ccc(N2CCC(CNCC3CCC(CN[C@H](C(=O)O)C4CCCCC4)CC3)CC2)cc1 (stereo partly drawn) [Example 55, (2S)-cyclohexyl{[(4-{[({1-[4-(hydroxycarbamoyl)phenyl]piperidin-4-yl}methyl)amino]methyl}cyclohexyl)methyl]amino}acetic acid] |  |  |  | > 1000 |  | 
O=C(NO)c1cnc(N2CCC(CNCc3ccc(CN[C@H](C(=O)OC4CCCC4)c4ccccc4)cc3)CC2)nc1 [Example 42] | < 330 | < 330 | < 330 |  |  | 
CC(C)C[C@H](NCc1ccc(CNC2CCN(c3ncc(C(=O)NO)cn3)CC2)cc1)C(=O)O [Example 28, N-{-4-[({1-[5-(hydroxycarbamoyl)pyrimidin-2-yl]piperidin-4-yl}amino)methyl]benzyl}-L-leucine] |  |  |  | 101 to 1000 |  | 
O=C(NO)c1cnc(N2CCC(NCc3ccc(CN[C@H](C(=O)OC4CCCC4)c4ccccc4)cc3)CC2)nc1 [Example 30] |  |  |  | < 100 |  | 
O=C(NO)c1cnc(N2CCC(NCc3ccc(CN[C@H](C(=O)OC4CCCC4)c4ccccc4)cc3)CC2)nc1 [Example 32] |  |  |  | 101 to 1000 |  | 
O=C(NO)c1ccc(N2CCC(CNCC3CCC(CN[C@H](C(=O)OC4CCCC4)C4CCCCC4)CC3)CC2)cc1 (stereo partly drawn) [Example 54, cyclopentyl (2S)-cyclohexyl{[(4-{[({1-[4-(hydroxycarbamoyl)phenyl]piperidin-4-yl}methyl)amino]methyl}cyclohexyl)methyl]amino}acetate] | 331 to 3300 |  | 331 to 3300 | > 1000 |  | 
O=C(NO)c1ccc(N2CCC(CNCc3ccc(CN[C@H](C(=O)OC4CCCC4)C4CCCCC4)cc3)CC2)cc1 [Example 52, Cyclopentyl (2S)-cyclohexyl[(4-{[({1-[4-(hydroxycarbamoyl)phenyl]piperidin-4-yl}methyl)amino]methyl}benzyl)amino]acetate] | 331 to 3300 |  | 331 to 3300 | > 1000 |  | 
O=C(NO)c1cnc(N2CCC(CNCC3CCC(CN[C@H](C(=O)OC4CCCC4)C4CCCCC4)CC3)CC2)nc1 (stereo partly drawn) [Example 46, Cyclopentyl (2S)-cyclohexyl{[(4-{[({1-[5-(hydroxycarbamoyl)pyrimidin-2-yl]piperidin-4-yl}methyl)amino]methyl}cyclohexyl)methyl]amino}acetate] | 331 to 3300 |  | 331 to 3300 | 101 to 1000 |  | 
O=C(NO)c1cnc(N2CCC(N[C@@H](CO)C(=O)OC3CCCC3)CC2)nc1 [Example 9] | 331 to 3300 | > 3300 | 331 to 3300 |  |  | 
O=C(NO)c1cnc(N2CCC(NCc3ccc(CN[C@H](C(=O)OC4CCCC4)c4ccccc4)cc3)CC2)nc1 [Example 29] | < 330 | 331 to 3300 | 331 to 3300 | < 100 |  | 
O=C(NO)c1cnc(N2CCC(NCc3ccc(CN[C@H](C(=O)OC4CCCC4)c4ccccc4)cc3)CC2)nc1 [Example 33] |  |  | < 330 | < 100 | < 330 | 331 to 3300
CC(C)C[C@H](NC1CCN(c2ccc(C(=O)NO)cc2)CC1)C(=O)OC1CCCC1 [Example 48, Cyclopentyl N-{1-[4-(hydroxycarbamoyl)phenyl]piperidin-4-yl}-L-leucinate] | 331 to 3300 |  | > 3300 | > 1000 |  | 
O=C(NO)c1cnc(N2CCC(CNCc3ccc(CN[C@@H](CO)C(=O)OC4CCCC4)cc3)CC2)nc1 [Example 44] | < 330 | 331 to 3300 | < 330 |  |  | 
CC(C)C[C@H](NC1CCN(c2ncc(C(=O)NO)cn2)CC1)C(=O)OC1CCCC1 [Example 1, Cyclopentyl N-{1-[5-(hydroxycarbamoyl)pyrimidin-2-yl]piperidin-4-yl}-L-leucinate] | < 330 | > 3300 | 331 to 3300 | 101 to 1000 |  | 

Compound | IC50 ([1]; Homo sapiens, U-937, 72-96 h) [nM] | IC50 ([2]; Homo sapiens) [nM] | IC50 [3] [nM] | IC50 [4] [nM] | IC50 ([1]; 72-96 h) [nM] | IC50 [2] [nM]
O=C(NO)c1cnc(N2CCC(CNCC3CCC(CN[C@H](C(=O)O)C4CCCCC4)CC3)CC2)nc1 (stereo partly drawn) [Example 47, (2S)-cyclohexyl{[(4-{[({1-[5-(hydroxycarbamoyl)pyrimidin-2-yl]piperidin-4-yl}methyl)amino]methyl}cyclohexyl)methyl]amino}acetic acid] |  |  |  | < 100 |  | 
O=C(NO)c1ccc(N2CCC(CN[C@H](C(=O)O)C3CCCCC3)CC2)cc1 [Example 51, (2S)-cyclohexyl[({1-[4-(hydroxycarbamoyl)phenyl]piperidin-4-yl}methyl)amino]acetic acid] |  |  |  | > 1000 |  | 
CC(C)(C)OC[C@H](NCC1CCN(c2ncc(C(=O)NO)cn2)CC1)C(=O)OC1CCCC1 [Example 22] | < 330 | 331 to 3300 | < 330 |  |  | 
O=C(NO)c1cnc(N2CCC(CN[C@H](C(=O)OC3CCCC3)c3cccc4ccccc34)CC2)nc1 [Example 26] | 331 to 3300 | > 3300 | 331 to 3300 |  |  | 
O=C(NO)c1cnc(N2CC3C(CN[C@H](C(=O)O)C4CCCCC4)C3C2)nc1 (stereo partly drawn) [Example 15, (2S)-cyclohexyl[({3-[5-(hydroxycarbamoyl)pyrimidin-2-yl]-3-azabicyclo[3.1.0]hex-6-yl}methyl)amino]acetic acid] |  |  |  | 101 to 1000 |  | 
CC(C)C[C@H](NC1CCN(c2ccc(C(=O)NO)cc2)CC1)C(=O)O [Example 49, N-{1-[4-(hydroxycarbamoyl)phenyl]piperidin-4-yl}-L-leucine] |  |  |  | > 1000 |  | 
O=C(NO)c1cnc(N2CCC(CNCc3ccc(CN[C@H](C(=O)O)C4CCCCC4)cc3)CC2)nc1 [Example 39, (2S)-cyclohexyl[(4-{[({1-[5-(hydroxycarbamoyl)pyrimidin-2-yl]piperidin-4-yl}methyl)amino]methyl}benzyl)amino]acetic acid] |  |  |  | < 100 |  | 
CC(C)C[C@H](NC1CCN(c2ncc(C(=O)NO)cn2)CC1)C(=O)O [Example 2, N-{1-[5-(hydroxycarbamoyl)pyrimidin-2-yl]piperidin-4-yl}-L-leucine] |  |  |  | 101 to 1000 |  | 
O=C(NO)c1cnc(N2CCC(CN[C@H](C(=O)OC3CCCC3)c3ccccc3)CC2)nc1 [Example 20] | < 330 | 331 to 3300 | 331 to 3300 |  |  | 
CC(C)C[C@H](NCC1CCN(c2ncc(C(=O)NO)cn2)CC1)C(=O)OC1CCCC1 [Example 16] | < 330 | 331 to 3300 | < 330 |  |  | 
CC(C)C[C@H](NCc1ccc(CNCC2CCN(c3ncc(C(=O)NO)cn3)CC2)cc1)C(=O)OC1CCCC1 [Example 36] | < 330 | < 330 | < 330 |  |  | 
O=C(NO)c1ccc(N2CCC(CN[C@H](C(=O)OC3CCCC3)C3CCCCC3)CC2)cc1 [Example 50, Cyclopentyl (2S)-cyclohexyl[({1-[4-(hydroxycarbamoyl)phenyl]piperidin-4-yl}methyl)amino]acetate] | > 3300 |  | > 3300 | > 1000 |  | 
CC(C)(C)OCC(NCC1C2CN(c3ncc(C(=O)NO)cn3)CC12)C(=O)OC1CCCC1 (stereo not drawn) [Example 12] | < 330 | 331 to 3300 | 331 to 3300 |  |  | 
O=C(NO)c1cnc(N2CCC(NCc3ccc(CN[C@H](C(=O)OC4CCCC4)c4ccccc4)cc3)CC2)nc1 [Example 34] |  |  |  | < 100 |  | 
O=C(NO)c1cnc(N2CCC(CN[C@H](C(=O)O)C3CCCCC3)CC2)nc1 [Example 19, (2S)-cyclohexyl[({1-[5-(hydroxycarbamoyl)pyrimidin-2-yl]piperidin-4-yl}methyl)amino]acetic acid] |  |  |  | < 100 |  | 

Source: US8962825B2, “Hydroxamates as inhibitors of histone deacetylase” (GlaxoSmithKline Intellectual Property Development Limited, priority 2006, dated 2015)
